Experimental data taken from patent US9394317B2, “Imidazo pyridine compounds” (Eli Lilly and Company, priority 2013, dated 2016).

Columns and labels:
endogenous autotaxin = biological target: T1, endogenous autotaxin (Homo sapiens, UniProt Q13822); assay: Reduction of LPA in the Presence of Human Plasma; format: biochemical; conditions: 90% pooled human plasma, 3 hours at 37° C., total LPA by mass spec; arithmetic mean
T1 construct: The increased endogenous LPC levels are cleaved by endogenous autotaxin; tissue Lampire Biologicals; host or cells: pooled human plasma (healthy female donors, sodium heparin)
From the text: The following assay is intended to measure the reduction of LPA. This assay is a tool that can be used to identify selective autotaxin-mediated LPA inhibitor compounds when it is used to test compounds that have been identified as autotaxin inhibitors. LPA biosynthesis through autotaxin is believed to the source of LPA for LPA1 mediated neuropathic pain. Makoto Inoue, et. al, “Autotaxin, a synthetic enzyme of lysophosphatidic acid (LPA), mediates the induction of nerve-injured neuropathic pain”, Molecular Pain, 2008, 4:6. Targeted inhibition of the autotaxin mediated LPA biosynthesis is supported by the results of this assay.
Units of plasma from healthy human female donors collected in sodium heparin (Lampire Biologicals) are pooled, aliquoted and stored at −80° C. […] A 400 μl aliquot of extraction buffer (50% methanol, 49.9% acetonitrile, 0.1% acetic acid) containing LPA internal standards (50 ng/ml D5 deuterium LPA 16:0 and 50 ng/ml D5 deuterium LPA 18:0) is added to each well and the total LPA in each sample is determined by mass spec analysis. Percent reduction of LPA is calculated according to the following formula: 100−(3 hour plasma+test compound−0 hour plasma no test compound control)/(3 hour plasma no test compound control−0 hour plasma no test compound control)×100
IC50 values are calculated using 4 parameter curve fitting. […]

[1] = biological target: T2, recombinant human autotaxin (Homo sapiens, UniProt Q13822); assay: Inhibition of Autotaxin as Measured by Choline Release; format: biochemical; conditions: substrate LPC 16:0 30 μM, 37° C., 1 hour; arithmetic mean
T2 construct: full length human autotaxin with a C-terminal His tag transfected into 293E cells; His tag (C); made in house; host or cells: 293E cells
Description: The purpose of this assay is to detect autotaxin inhibition using a choline release assay.
Test compounds (10 mM stocks in 100% DMSO) are serially diluted in 100% DMSO resulting in 10 concentrations of 100× inhibitor in half area 96 well plates (Corning 3992). Each of these 10 wells in 100% DMSO is diluted 1:33.33 in assay buffer in round bottom 96 well plates (Fisher 12565502) resulting in 3× concentrations in well containing 3% DMSO. The assay buffer is 50 mM Tris pH8.0, 5 mM KCl, 1 mM CaCl2, 1 mM MgCl2, 0.01% TRITON™ X-100 (Sigma T9284) and 0.01% fatty acid free bovine serum albumin (Sigma A8806). A 20 μl aliquot of each 3× test compound is then added to black flat bottom 96 well plates (Corning 3991) in singlicate. A 20 μl aliquot per well of 3× recombinant human autotaxin (full length human autotaxin with a C-terminal His tag transfected into 293E cells and purified via nickel chelate and size exclusion chromatography) is then added to every well except for the no enzyme control wells. […] The resorufin on the plates is measured with a SpectraMax Gemini EM fluorometer at excitation-emission wavelengths of 530-590 nm using SoftMax Pro 4.8 software. IC50s are calculated using 4 parameter curve fits with the internal Lilly software OLO curve fitting tool. Results are expressed as the arithmetic mean +/− standard deviation; n=x.

SMILES | IC50 (endogenous autotaxin) | IC50 [1]
O=C(OCC1CCc2nccn2C1)N1Cc2cnc(NC3Cc4ccccc4C3)nc2C1 (single isomer, unassigned; isomer 2) [Example 3, 5,6,7,8-tetrahydroimidazo[1,2-a]pyridin-6-ylmethyl 2-(2,3-dihydro-1H-inden-2-ylamino)-5,7-dihydro-6H-pyrrolo[3,4-d]pyrimidine-6-carboxylate isomer 2] | 2.22 nM | < 1.7 nM
O=C(OCC1Cn2ccnc2CO1)N1Cc2cnc(NC3Cc4ccccc4C3)nc2C1 (single isomer, unassigned; isomer 2) [Example 8, 5,6-dihydro-8H-imidazo[2,1-c][1,4]oxazin-6-ylmethyl 2-(2,3-dihydro-1H-inden-2-ylamino)-5,7-dihydro-6H-pyrrolo[3,4-d]pyrimidine-6-carboxylate isomer 2] | 12.9 nM | 2.04 nM
